Read-outs that look alike come from different tables or passages of the source.
Tests used:
ABCB1 = assay: CLZD_ABCB1: Change in expression of ABCB1 (primary human hepatocytes); assay type: cell-based; conditions: 24 hr
How it was run: (§1)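 Chemicals are tested in human hepatocyte primary cultures over 0.004-40 µM (5 concentrations) for 6, 24 or 48 hr, and concentration- and time-dependent transcript changes are read by quantitative nuclease protection assay.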

ABCB11 = assay: CLZD_ABCB11: Change in expression of ABCB11 (primary human hepatocytes); assay type: cell-based; conditions: 24 hr
Experimental: This is a collection of multiplexed gene expression assays focused on Phase I and II xenobiotic metabolizing enzymes and transporters. Human primary cell cultures were treated with chemicals at 5 concentrations (0.004-40 [drawing 42] M) for 6, 24 and 48 hr. Concentration- and time-response profiles of chemicals were measured by the expression of key nuclear receptor target genes, activities of CYP1A enzymes (EROD), and cell morphology. Fourteen gene targets were monitored by quantitative nuclease protection assay including: six representative cytochrome P-450 genes, four hepatic transporters, three Phase II conjugating enzymes, and one endogenous metabolism gene involved in cholesterol synthesis. The target genes associated with nuclear receptor pathways are as follows: [drawing 43] and [drawing 44] with [drawing 45]; [drawing 46] , [drawing 47] , [drawing 48] , [drawing 49] , [drawing 50] and [drawing 51] with [drawing 52]; [drawing 53] , [drawing 54] , [drawing 55] and [drawing 56] with [drawing 57]; [drawing 58] with [drawing 59]; and [drawing 60] with [drawing 61] . Assays were run in primary human hepatocyte cultures by CellzDirect Invitrogen Inc. (Durham, NC), in collaboration with EPA.
Multiplexed Gene Expression in Human Primary Hepatocytes: This is a collection of multiplexed gene expression assays focused on Phase I and II metabolic enzymes and transporters. […] Fourteen gene targets were monitored by quantitative nuclease protection assay: six representative cytochrome P450 genes, four hepatic transporters, three Phase II conjugating enzymes, and one endogenous metabolism gene involved in cholesterol synthesis. Cells were exposed at 5 concentrations (0.004-40 µM) for 6, 24 or 48 hr. Gene targets are sentinels for five nuclear receptor signaling pathways: AhR, CAR, PXR, FXR, and PPARα. All gene are associated with nuclear receptor pathways: CYP1A1 and CYP1A2 with AHR; ABCB1, ABCG2, CYP2B6, CYP2C9, CYP2C19 and UGT1A1 with CAR; CYP3A4, GSTA2, SLCO1B1 and SULT2A1 with PXR; HMGCS2 with PPARA; and ABCB11 with FXR. […] Detailed description of the methods, data and analysis methods for this dataset will be presented in a separate publication.

CYP1A1 = assay: CLZD_CYP1A1: Change in expression of CYP1A1 (primary human hepatocytes); assay type: cell-based; conditions: 24 hr
How it was run: as §1

CYP2B6 = assay: CLZD_CYP2B6: Change in expression of CYP2B6 (primary human hepatocytes); assay type: cell-based; conditions: 24 hr
How it was run: as §1

PXR Human (NR1I2) = target: T1, PXR Human (NR1I2) (Homo sapiens, UniProt O75469); assay: NCGC_PXR_Agonist_human: GAL4 BLAM Reporter gene assay: PXR Human; assay type: cell-based; conditions: agonist mode
T1 sequence (O75469 146-434 limits assumed): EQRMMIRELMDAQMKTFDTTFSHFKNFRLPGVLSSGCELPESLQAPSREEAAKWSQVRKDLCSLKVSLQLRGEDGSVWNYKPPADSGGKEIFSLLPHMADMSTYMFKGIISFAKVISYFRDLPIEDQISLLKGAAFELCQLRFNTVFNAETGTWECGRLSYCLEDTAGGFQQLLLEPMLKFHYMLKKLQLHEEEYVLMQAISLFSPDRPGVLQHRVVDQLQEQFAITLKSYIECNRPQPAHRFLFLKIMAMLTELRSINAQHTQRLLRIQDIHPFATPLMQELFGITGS
How it was run: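 Tox21 cell-based screens at NCGC using GAL4-fused receptor beta-lactamase reporters. Responses active only at the top concentration (above 50%) were discarded, and fits needed R^2 of at least 0.5.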

Rat Liver [1] = conditions: ref ToxRefDB, cited from earlier work
Rat Liver [2] = conditions: ref ToxRefDB, cited from earlier work; remark: listed apart in the source
Rat Liver [3] = conditions: ref ToxRefDB, cited from earlier work; remark: listed apart in the source
CAR (NR1I3) = target: T2, CAR (NR1I3) (Homo sapiens, UniProt Q14994); assay: ATG_PBREM_CIS: Factorial reporter gene assay (HepG2); assay type: cell-based; design: endogenous in cells; host or cells: HepG2; conditions: HepG2 reporter
T2 sequence (Q14994 1-352): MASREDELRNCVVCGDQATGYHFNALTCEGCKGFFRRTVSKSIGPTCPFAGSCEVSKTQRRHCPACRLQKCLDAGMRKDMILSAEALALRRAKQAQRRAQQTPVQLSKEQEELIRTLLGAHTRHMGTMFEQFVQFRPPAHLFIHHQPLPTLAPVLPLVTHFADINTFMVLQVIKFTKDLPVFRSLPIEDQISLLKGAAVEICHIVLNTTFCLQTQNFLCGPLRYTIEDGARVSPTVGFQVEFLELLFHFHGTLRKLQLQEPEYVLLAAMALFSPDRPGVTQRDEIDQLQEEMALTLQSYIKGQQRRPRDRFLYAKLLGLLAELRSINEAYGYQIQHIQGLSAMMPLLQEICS
Experimental: A multiple reporter transcription unit (MRTU) library consisting of 48 transcription factor binding sites was transfected into the HepG2 human liver hepatoma cell line. In addition to the cis-acting reporter genes (CIS), a modification of the approach was used to generate a trans-system (TRANS) with a mammalian one-hybrid assay consisting of an additional 25 MRTU library reporting the activity of nuclear receptor super-family members. […] These assays were performed by Attagene Inc. (Morrisville NC) under contract to EPA.
In addition to the cis-acting reporter genes (CIS), a modification of the approach was used to generate a trans-system (TRANS) with a mammalian one-hybrid assay consisting of an additional 25 MRTU library reporting the activity of nuclear receptor super-family members. […] Chemicals were then tested in the CIS and TRANS assays at seven concentrations starting at the MTC and followed by three-fold serial dilutions. These assays were performed by Attagene Inc. (Morrisville NC) under contract to EPA. Detailed description of the methods, data and analysis methods for this dataset will be presented in a separate publication.

[4] = target: T3, PPARG (peroxisome proliferator-activated receptor gamma) (Homo sapiens, UniProt P37231); assay: ATG_PPARg_TRANS: Factorial reporter gene assay (HepG2); assay type: cell-based; conditions: HepG2 reporter
T3 construct: expressed in transfected cells; host or cells: HepG2
T3 sequence (P37231 1-505): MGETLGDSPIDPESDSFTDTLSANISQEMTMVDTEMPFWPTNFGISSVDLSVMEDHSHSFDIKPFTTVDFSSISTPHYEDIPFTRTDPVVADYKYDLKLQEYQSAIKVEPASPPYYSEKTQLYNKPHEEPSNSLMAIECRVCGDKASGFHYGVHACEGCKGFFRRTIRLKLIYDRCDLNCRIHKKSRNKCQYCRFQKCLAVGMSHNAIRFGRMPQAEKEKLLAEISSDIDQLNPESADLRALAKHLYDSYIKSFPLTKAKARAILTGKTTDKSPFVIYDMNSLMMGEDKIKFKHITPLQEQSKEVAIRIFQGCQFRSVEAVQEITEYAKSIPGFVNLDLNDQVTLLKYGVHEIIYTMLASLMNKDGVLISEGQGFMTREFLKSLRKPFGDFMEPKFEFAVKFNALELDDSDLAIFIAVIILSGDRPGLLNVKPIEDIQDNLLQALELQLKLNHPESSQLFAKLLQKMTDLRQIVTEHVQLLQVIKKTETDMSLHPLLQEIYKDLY
How it was run: (§2)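 Each chemical received seven doses, the first at its MTC, then successive three-fold dilutions. Host cells: HepG2 carrying either cis (PXRE, 48 sites) or trans one-hybrid (ERRg, FXR, PPARg; 25 units) reporter libraries.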

CYP1A2 = assay: CLZD_CYP1A2: Change in expression of CYP1A2 (primary human hepatocytes); assay type: cell-based; conditions: 24 hr
How it was run: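 Primary human hepatocyte cultures were exposed to test chemicals at 5 concentrations (0.004-40 µM) for 6, 24 or 48 hr.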

CYP3A4 = assay: CLZD_CYP3A4: Change in expression of CYP3A4 (primary human hepatocytes); assay type: cell-based; conditions: 24 hr
How it was run: as §1

PXR (NR1I2) [5] = target: T4, PXR (NR1I2) (Homo sapiens, UniProt O75469); assay: NVS_NR_hPXR: Human PXR Fluormone PXR (SXR) green (cell-free HTS); assay type: binding
T4 sequence (O75469 1-434): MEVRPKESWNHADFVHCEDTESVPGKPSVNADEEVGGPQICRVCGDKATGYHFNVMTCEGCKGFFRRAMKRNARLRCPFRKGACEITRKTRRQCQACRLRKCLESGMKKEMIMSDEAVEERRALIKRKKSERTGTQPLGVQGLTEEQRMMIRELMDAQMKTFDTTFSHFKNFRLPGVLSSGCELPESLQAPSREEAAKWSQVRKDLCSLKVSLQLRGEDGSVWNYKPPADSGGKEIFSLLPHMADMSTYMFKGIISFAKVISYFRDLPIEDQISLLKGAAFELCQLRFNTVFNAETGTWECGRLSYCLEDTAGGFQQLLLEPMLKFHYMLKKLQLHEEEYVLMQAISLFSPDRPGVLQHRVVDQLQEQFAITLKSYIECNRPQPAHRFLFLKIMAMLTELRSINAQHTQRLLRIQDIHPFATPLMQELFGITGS
How it was run: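 Cell-free biochemical binding assays; chemicals first screened at a single concentration of 25 […] M in duplicate wells. Signals normalised to same-plate solvent controls as percent of neutral control, and AC50 values came from Hill-equation fits of concentration-response curves.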

PXR (NR1I2) [6] = target: T4, PXR (NR1I2); assay: ATG_PXRE_CIS: Factorial reporter gene assay (HepG2); assay type: cell-based; design: endogenous in cells; host or cells: HepG2; conditions: HepG2 reporter
How it was run: as §2

RXRa (RXRA) = target: T5, RXRa (RXRA) (Homo sapiens, UniProt P19793); assay: NCGC_RXRa_Agonist: GAL4 BLAM Reporter gene assay: RXRa; assay type: cell-based; conditions: agonist mode
T5 sequence (P19793 227-462 limits assumed): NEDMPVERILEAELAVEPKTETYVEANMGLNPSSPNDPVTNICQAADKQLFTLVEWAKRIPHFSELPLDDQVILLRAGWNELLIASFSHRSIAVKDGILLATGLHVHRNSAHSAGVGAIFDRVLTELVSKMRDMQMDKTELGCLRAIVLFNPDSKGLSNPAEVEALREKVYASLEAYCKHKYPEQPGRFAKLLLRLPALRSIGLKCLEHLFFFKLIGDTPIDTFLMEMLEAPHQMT
Experimental: These assays measure binding constants and enzyme inhibition values for nuclear receptors. The targets include [drawing 67] , [drawing 68] , [drawing 69] , [drawing 70] , [drawing 71] , [drawing 72] , [drawing 73] , [drawing 74] , [drawing 75] and [drawing 76] . Each of the nuclear receptor targets was measured in agonist mode. Assays were run at the NIH Chemical Genomics Center (Rockville, MD).
Cell-based HTS Assays: These assays measuring binding constants and enzyme inhibition values for nuclear receptors. The targets include AR, ER, FXR, LXR, PPARα, PPARδ, PPARγ, RXRα, RXRβ and PXR. Each of the nuclear receptor targets was measured in both agonist and antagonist mode, but the antagonist data is still undergoing analysis due to possible interference between cytotoxicity and assay activity, so antagonist mode data were not used in the present analysis. Assays were run at the NIH Chemical Genomics Center (Rockville, MD) as part of the Tox21 collaboration. […] The R^2 was required to be ≥0.5. Values where only the highest concentration exceeded 50% activity were excluded to eliminate weak or false positives. Detailed description of the methods, data and analysis methods for this dataset will be presented in a separate publication.

For `C=C(C)[C@H]1Cc2c(ccc3c2O[C@@H]2COc4cc(OC)c(OC)cc4[C@@H]2C3=O)O1` [r282], the CLZD_ABCB1_24 (ABCB1) was 4.54, the CLZD_ABCB11_24 (ABCB11) was 5.217 and the CLZD_CYP1A1_24 (CYP1A1) was 5.398. The CLZD_CYP2B6_24 (CYP2B6) was 5.235, the NCGC_PXR_Agonist_human (PXR Human (NR1I2)) was 4.77 and the CHR_Rat_Liver_1_AnyLesion (Rat Liver [1]; chronic study, rat liver) was 0. For the same molecule, the CHR_Rat_Liver_2_PreneoplasticLesion (Rat Liver [2]; chronic study, rat liver) was 0, the CHR_Rat_Liver_3_NeoplasticLesion (Rat Liver [3]; chronic study, rat liver) was 0 and the ATG_PBREM_CIS (CAR (NR1I3)) was 6.638.

`COC(=O)N(OC)c1ccccc1COc1ccn(-c2ccc(Cl)cc2)n1` [r270] showed an ATG_PPARg_TRANS [4] of 6.119, a CLZD_ABCB1_24 (ABCB1) of 5.275 and a CLZD_ABCB11_24 (ABCB11) of 5.366. For the same molecule, the CLZD_CYP1A1_24 (CYP1A1) was 6.198, the CLZD_CYP1A2_24 (CYP1A2) was 6.309 and the CLZD_CYP3A4_24 (CYP3A4) was 5.335. The NVS_NR_hPXR (PXR (NR1I2) [5]) was 5.183, the CHR_Rat_Liver_1_AnyLesion (Rat Liver [1]; chronic study, rat liver) was 6 and the CHR_Rat_Liver_2_PreneoplasticLesion (Rat Liver [2]; chronic study, rat liver) was 0. The CHR_Rat_Liver_3_NeoplasticLesion (Rat Liver [3]; chronic study, rat liver) was 0, the ATG_PBREM_CIS (CAR (NR1I3)) was 5.658 and the ATG_PXRE_CIS (PXR (NR1I2) [6]) was 5.62.

In the case of `CS(=O)(=O)c1ccc(C(=O)C2C(=O)CCCC2=O)c([N+](=O)[O-])c1` [row 195], the NCGC_RXRa_Agonist (RXRa (RXRA)) is given as 4.471, the CHR_Rat_Liver_1_AnyLesion (Rat Liver [1]; chronic rat study, liver) is given as 6 and the CHR_Rat_Liver_2_PreneoplasticLesion (Rat Liver [2]; chronic rat study, liver) is given as 0. For the same molecule, the CHR_Rat_Liver_3_NeoplasticLesion (Rat Liver [3]; chronic rat study, liver) was 0.

— PMC3038857, “Using Nuclear Receptor Activity to Stratify Hepatocarcinogens” (PLoS ONE, 2011)
